This note sets out measurements from PubChem BioAssay AID1919017 (Molecular Pharmacology Branch, DTP, NCI, 2023).

“And” between values parts separate entries of the source, which are not always exact repeats. Equal values may be shown once.

What is called IC50 is the concentration that inhibits the measured activity by half. By viability, T/C is commonly meant the ratio of treated to control.

This assay deals with SW1271 complex spheroids with HUVEC/MSC, growth, % test/control. Description: Anticancer human tumor SW1271 cell line growth inhibition [AhR].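 On all read-outs here: spheroids exposed to agents for 7 days before readout.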 To be noted: for viability, T/C: stronger effect = lower value. Put shortly: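 Complex tumor spheroids co-cultured with HUVEC and human MSC stroma; AhR antagonists tested in combination with standard-of-care and investigational agents. Top concentration at or near clinical Cmax (else 10 microM), half-log dilutions; growth expressed as percent test/control.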

The mark [1] stands for this setting: curve of first compound, second compound 0.1 µM.
Where [2] appears, read: curve of first compound, second compound 0.316 µM.
Setting [3] is: curve of first compound, second compound 1 µM.
Setting [4] is: curve of first compound, second compound 3.16 µM.
Where [5] appears, read: curve of first compound, second compound 10 µM.
Where [6] appears, read: second compound 0.1 µM, first compound 0.0316 µM.
Setting [7] is: second compound 0.1 µM, first compound 0.1 µM.
[8] abbreviates: second compound 0.1 µM, first compound 0.316 µM.
[9] abbreviates: second compound 0.1 µM, first compound 1 µM.
The mark [10] stands for this setting: second compound 0.1 µM, first compound 3.16 µM.
Where [11] appears, read: second compound 0.1 µM, first compound 10 µM.
[12] abbreviates: second compound 0.316 µM, first compound 0.0316 µM.
Setting [13] is: second compound 0.316 µM, first compound 0.1 µM.
The mark [14] stands for this setting: second compound 0.316 µM, first compound 0.316 µM.
Where [15] appears, read: second compound 0.316 µM, first compound 1 µM.
Setting [16] is: second compound 0.316 µM, first compound 3.16 µM.
The mark [17] stands for this setting: second compound 0.316 µM, first compound 10 µM.
The mark [18] stands for this setting: second compound 1 µM, first compound 0.0316 µM.
Setting [19] is: second compound 1 µM, first compound 0.1 µM.
[20] abbreviates: second compound 1 µM, first compound 0.316 µM.
[21] abbreviates: second compound 1 µM, first compound 1 µM.
The mark [22] stands for this setting: second compound 1 µM, first compound 3.16 µM.
[23] abbreviates: second compound 1 µM, first compound 10 µM.
Setting [24] is: second compound 3.16 µM, first compound 0.0316 µM.
[25] abbreviates: second compound 3.16 µM, first compound 0.1 µM.
The mark [26] stands for this setting: second compound 3.16 µM, first compound 0.316 µM.
Setting [27] is: second compound 3.16 µM, first compound 1 µM.
The mark [28] stands for this setting: second compound 3.16 µM, first compound 3.16 µM.
Setting [29] is: second compound 3.16 µM, first compound 10 µM.
Setting [30] is: second compound 10 µM, first compound 0.0316 µM.
Setting [31] is: second compound 10 µM, first compound 0.1 µM.
Where [32] appears, read: second compound 10 µM, first compound 0.316 µM.
[33] abbreviates: second compound 10 µM, first compound 1 µM.
[34] abbreviates: second compound 10 µM, first compound 3.16 µM.
Setting [35] is: second compound 10 µM, first compound 10 µM.

As for `COc1cc(Nc2ncc3c(n2)-c2ccc(Cl)cc2C(c2c(F)cccc2OC)=NC3)ccc1C(=O)O` + Cc1cncc(-c2nc(NCCc3c[nH]c4ccccc34)c3ncn(C(C)C)c3n2)c1, the IC50 runs as follows: under setting [1], over 10 µM; under setting [2], over 10 µM; under setting [3], over 10 µM; under setting [4], over 10 µM; under setting [5], under 0.0316 µM. For the same compound, the viability, T/C is 92.7% under setting [6]; 91.6% under setting [7]; 98.6% under setting [8]; 93.9% under setting [9]; 78.3% under setting [10]; 67.7% under setting [11]. Moreover, the viability, T/C reads like this: under setting [12], 91%; under setting [13], 87.8%; under setting [14], 92%; under setting [15], 91%; under setting [16], 98.4%; under setting [17], 57.5%. Besides, the viability, T/C runs as follows: under setting [18], 81.5%; under setting [19], 87.2%; under setting [20], 88.2%; under setting [21], 88.6%; under setting [22], 81.3%; under setting [23], 56.2%. The viability, T/C is 95.1% under setting [24]; 87.5% under setting [25]; 91.9% under setting [26]; 102% under setting [27]; 78.9% under setting [28]; 67.9% under setting [29]. Also, the viability, T/C runs as follows: under setting [30], 36.1%; under setting [31], 50.7%; under setting [32], 49.5%; under setting [33], 50.1%; under setting [34], 42.5%; under setting [35], 40.4%.

With `CCc1c2c(nc3ccc(O)cc13)-c1cc3c(c(=O)n1C2)COC(=O)[C@]3(O)CC`, the viability, T/C by setting is: (compound 0.000949 µM) 78.1% and 88.3% and 86.2%; (compound 0.003 µM) 79.8% and 97.7% and 79%; (compound 0.00949 µM) 64.6% and 71.7% and 61.4%; (compound 0.03 µM) 67% and 58.3% and 59.9%; (compound 0.0949 µM) 55.6% and 56% and 60.6%; (compound 0.3 µM) 44.9% and 53.3% and 49.2%. Further, the IC50 (curve of compound) is 0.177 µM and > 0.3 µM.

Regarding `O=C(C=Cc1cccc(S(=O)(=O)Nc2ccccc2)c1)NO` + Cc1cncc(-c2nc(NCCc3c[nH]c4ccccc34)c3ncn(C(C)C)c3n2)c1, the IC50 under setting [1] came out at 1.88 µM; the IC50 under setting [2] came to 1.39 µM; the IC50 under setting [3] was determined as 2.09 µM; the IC50 under setting [4] turned out to be 1.46 µM; the IC50 under setting [5] turned out to be 0.21 µM. Moreover, the viability, T/C by setting is: under setting [6], 97.2%; under setting [7], 93.9%; under setting [8], 83.2%; under setting [9], 68.3%; under setting [10], 35.5%; under setting [11], 16.9%. Further, the viability, T/C runs as follows: under setting [12], 104%; under setting [13], 102%; under setting [14], 96.8%; under setting [15], 61.9%; under setting [16], 20.2%; under setting [17], 16.6%. Further, the viability, T/C is 97.4% under setting [18]; 97.8% under setting [19]; 84.5% under setting [20]; 65.4% under setting [21]; 41.7% under setting [22]; 15.9% under setting [23]. Moreover, the viability, T/C runs as follows: under setting [24], 107%; under setting [25], 115%; under setting [26], 97.7%; under setting [27], 57.5%; under setting [28], 33.7%; under setting [29], 16.6%. Further, the viability, T/C is 49.9% under setting [30]; 53.5% under setting [31]; 53.1% under setting [32]; 39.8% under setting [33]; 39.2% under setting [34]; 25.5% under setting [35].

For `Nc1ccccc1NC(=O)c1ccc(CNC(=O)OCc2cccnc2)cc1` + Cc1cncc(-c2nc(NCCc3c[nH]c4ccccc34)c3ncn(C(C)C)c3n2)c1, the IC50 runs as follows: under setting [1], 1.89 µM; under setting [2], 1.74 µM; under setting [3], 2.49 µM; under setting [4], 1.19 µM; under setting [5], under 0.0316 µM. In addition, the viability, T/C is, setting by setting: under setting [6], 94.7%; under setting [7], 110%; under setting [8], 95.5%; under setting [9], 69.8%; under setting [10], 34.3%; under setting [11], 15.8%. The viability, T/C by setting is: under setting [12], 109%; under setting [13], 104%; under setting [14], 97.4%; under setting [15], 62.9%; under setting [16], 35.5%; under setting [17], 17%. Besides, the viability, T/C runs as follows: under setting [18], 121%; under setting [19], 118%; under setting [20], 88.9%; under setting [21], 63.1%; under setting [22], 51.9%; under setting [23], 17.1%. Also, the viability, T/C was 121% under setting [24]; 107% under setting [25]; 112% under setting [26]; 52.8% under setting [27]; 36% under setting [28]; 16.7% under setting [29]. Also, the viability, T/C under setting [30] was 44.2%; the viability, T/C under setting [31] was 46.3%; the viability, T/C under setting [32] is 35.3%; the viability, T/C under setting [33] is 24%; the viability, T/C under setting [34] is 18.3%; the viability, T/C under setting [35] was 14.3%.

As to `COc1cc(Nc2ncc3c(n2)-c2ccc(Cl)cc2C(c2c(F)cccc2OC)=NC3)ccc1C(=O)O`, the viability, T/C runs as follows: (compound 0.0316 µM) 80.7% and 65.3% and 70.4%; (compound 0.1 µM) 91.2% and 67.1% and 74.3%; (compound 0.316 µM) 92.5% and 67% and 66.7%; (compound 1 µM) 83.3% and 64.7% and 68.1%; (compound 3.16 µM) 72.4% and 61.5% and 57.6%; (compound 10 µM) 43.3% and 49% and 51.4%. Where the note is “curve of compound”, the IC50 was 7.65 µM and > 10 µM.
